In ChEMBL document CHEMBL3046754, “New brassinosteroid analogs having nitrogenated functionalities at C3 to provide more information about the brassinosteroidreceptor interaction” (2004):

What was measured:
Assay type in all cases: functional
[1] = test system: Oryza sativa; experiment: Growth regulating activity in Oryza sativa (rice) Bahia cultivar seedlings assessed as interior angle between leaf lamina of second leaf and its leaf sheath at 0.1 ug/plant applied onto second lamina joint of plant sheath measured after 2 days by Oryza sativa lamina inclination test
[2] = test system: Oryza sativa; experiment: Growth regulating activity in Oryza sativa (rice) Bahia cultivar seedlings assessed as interior angle between leaf lamina of second leaf and its leaf sheath at 0.5 ug/plant applied onto second lamina joint of plant sheath measured after 2 days by Oryza sativa lamina inclination test
[3] = test system: Oryza sativa; experiment: Growth regulating activity in Oryza sativa (rice) Bahia cultivar seedlings assessed as interior angle between leaf lamina of second leaf and its leaf sheath at 1 ug/plant applied onto second lamina joint of plant sheath measured after 2 days by Oryza sativa lamina inclination test
[4] = test system: Oryza sativa; experiment: Growth regulating activity in Oryza sativa (rice) Bahia cultivar seedlings assessed as interior angle between leaf lamina of second leaf and its leaf sheath at 0.01 ug/plant applied onto second lamina joint of plant sheath measured after 2 days by Oryza sativa lamina inclination test
[5] = test system: Oryza sativa; experiment: Growth regulating activity in Oryza sativa (rice) Bahia cultivar seedlings assessed as interior angle between leaf lamina of second leaf and its leaf sheath at 0.05 ug/plant applied onto second lamina joint of plant sheath measured after 2 days by Oryza sativa lamina inclination test
[6] = test system: Oryza sativa; experiment: Growth regulating activity in Oryza sativa (rice) Bahia cultivar seedlings assessed as interior angle between leaf lamina of second leaf and its leaf sheath at 0.02 ug/plant applied onto second lamina joint of plant sheath measured after 2 days by Oryza sativa lamina inclination test

SMILES | Activity [1] | Activity [2] | Activity [3] | Activity [4] | Activity [5] | Activity [6]
CC[C@@H](C(C)C)[C@@H](O)[C@H](O)[C@@H](C)[C@H]1CC[C@H]2[C@@H]3COC(=O)[C@H]4C[C@H](N)CC[C@]4(C)[C@H]3CC[C@]12C | 16 degree | 31 degree | 55 degree |  |  | 
CC[C@@H](C(C)C)[C@@H](O)[C@H](O)[C@@H](C)[C@H]1CC[C@H]2[C@@H]3CC(=O)[C@H]4C[C@H](N=[N+]=[N-])CC[C@]4(C)[C@H]3CC[C@]12C | 30 degree | 64 degree | 75 degree | 17 degree | 24 degree | 
CC[C@@H](C(C)C)[C@@H](O)[C@H](O)[C@@H](C)[C@H]1CC[C@H]2[C@@H]3COC(=O)[C@H]4C[C@H](N=[N+]=[N-])CC[C@]4(C)[C@H]3CC[C@]12C | 86 degree | 94 degree | 106 degree | 37 degree | 74 degree | 44 degree
CC[C@@H](C(C)C)[C@@H](O)[C@H](O)[C@@H](C)[C@H]1CC[C@H]2[C@@H]3CC(=O)[C@H]4C[C@H](O)CC[C@]4(C)[C@H]3CC[C@]12C | 59 degree | 76 degree | 85 degree | 46 degree | 65 degree | 
CC[C@@H](C(C)C)[C@H](O)[C@@H](O)[C@@H](C)[C@H]1CC[C@H]2[C@@H]3CC(=O)[C@H]4C[C@H](N=[N+]=[N-])CC[C@]4(C)[C@H]3CC[C@]12C |  |  | 1 degree |  |  | 
CC[C@@H](C(C)C)[C@@H](O)[C@H](O)[C@@H](C)[C@H]1CC[C@H]2[C@@H]3CC(=O)[C@H]4C[C@H](N)CC[C@]4(C)[C@H]3CC[C@]12C |  |  | 23 degree |  |  | 
CC[C@@H](C(C)C)[C@H](O)[C@@H](O)[C@@H](C)[C@H]1CC[C@H]2[C@@H]3COC(=O)[C@H]4C[C@H](N=[N+]=[N-])CC[C@]4(C)[C@H]3CC[C@]12C |  | 17 degree | 48 degree |  |  | 
CC[C@@H](C(C)C)[C@H](O)[C@@H](O)[C@@H](C)[C@H]1CC[C@H]2[C@@H]3COC(=O)[C@H]4C[C@H](N)CC[C@]4(C)[C@H]3CC[C@]12C |  |  | 5 degree |  |  | 
CC[C@@H](C(C)C)[C@H](O)[C@@H](O)[C@@H](C)[C@H]1CC[C@H]2[C@@H]3CC(=O)[C@H]4C[C@H](N)CC[C@]4(C)[C@H]3CC[C@]12C |  |  | 3 degree |  |  | 
